Measured values taken from BindingDB's records for doi:10.1016/j.bioorg.2015.09.009 (Quaid-I-Azam University, 2015).

Assays:
Acetylcholinesterase = Acetylcholinesterase (Electrophorus electricus, UniProt O42275); assay: AChE and BChE Inhibitory Activities
[1] = target: Carboxylic ester hydrolase (Equus caballus, UniProt Q9N1N9); assay: AChE and BChE Inhibitory Activities
Chain of Carboxylic ester hydrolase (Q9N1N9 whole entry): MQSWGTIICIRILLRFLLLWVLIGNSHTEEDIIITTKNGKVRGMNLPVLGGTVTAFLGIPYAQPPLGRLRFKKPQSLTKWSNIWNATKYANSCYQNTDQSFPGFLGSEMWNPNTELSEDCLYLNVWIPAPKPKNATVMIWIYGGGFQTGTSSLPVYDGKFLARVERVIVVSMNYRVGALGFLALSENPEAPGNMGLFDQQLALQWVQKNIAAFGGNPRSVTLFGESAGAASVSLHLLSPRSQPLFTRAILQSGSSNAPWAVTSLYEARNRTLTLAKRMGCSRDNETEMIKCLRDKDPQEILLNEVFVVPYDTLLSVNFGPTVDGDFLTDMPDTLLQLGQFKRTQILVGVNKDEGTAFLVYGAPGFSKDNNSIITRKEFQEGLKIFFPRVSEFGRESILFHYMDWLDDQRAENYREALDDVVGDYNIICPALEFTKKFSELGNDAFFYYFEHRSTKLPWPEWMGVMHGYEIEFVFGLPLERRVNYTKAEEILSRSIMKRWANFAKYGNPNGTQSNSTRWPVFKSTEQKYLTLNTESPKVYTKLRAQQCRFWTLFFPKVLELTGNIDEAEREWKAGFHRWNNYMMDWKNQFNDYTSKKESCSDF

Chain of Acetylcholinesterase (O42275 whole entry): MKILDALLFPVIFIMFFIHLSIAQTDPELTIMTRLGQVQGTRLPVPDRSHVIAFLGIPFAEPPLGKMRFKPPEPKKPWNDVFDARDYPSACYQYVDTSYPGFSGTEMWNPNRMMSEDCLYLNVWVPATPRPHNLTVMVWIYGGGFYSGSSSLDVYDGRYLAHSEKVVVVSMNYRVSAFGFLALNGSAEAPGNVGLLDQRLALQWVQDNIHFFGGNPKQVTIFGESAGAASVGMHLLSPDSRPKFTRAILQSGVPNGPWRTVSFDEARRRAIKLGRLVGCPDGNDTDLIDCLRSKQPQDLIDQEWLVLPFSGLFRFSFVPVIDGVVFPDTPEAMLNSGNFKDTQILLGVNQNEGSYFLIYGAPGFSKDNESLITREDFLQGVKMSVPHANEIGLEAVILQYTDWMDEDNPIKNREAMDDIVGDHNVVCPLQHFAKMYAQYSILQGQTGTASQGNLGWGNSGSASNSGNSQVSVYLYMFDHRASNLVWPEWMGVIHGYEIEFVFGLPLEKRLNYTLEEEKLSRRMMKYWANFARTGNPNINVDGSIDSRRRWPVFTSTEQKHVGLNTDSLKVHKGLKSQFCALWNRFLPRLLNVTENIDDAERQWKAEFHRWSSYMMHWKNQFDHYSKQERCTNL

| Compound | IC50 (Acetylcholinesterase) [µM] | IC50 [1] [µM] |
| --- | --- | --- |
| O=C(NC(=S)Nc1cccc(Cl)c1Cl)c1cc2ccccc2oc1=O [1-(2-Oxo-2H-chromene-3-carbonyl)-3-(2,3-dichlorophenyl)thiourea (2d)] | 1.13 | 31.6 |
| O=C(NC(=S)Nc1ccc(Cl)cc1Cl)c1cc2ccccc2oc1=O [1-(2-Oxo-2H-chromene-3-carbonyl)-3-(2,4-dichlorophenyl)thiourea (2h)] | 6.21 | 13.2 |
| O=C(NC(=S)Nc1ccccc1Cl)c1cc2ccccc2oc1=O [1-(2-Oxo-2H-chromene-3-carbonyl)-3-(2-chlorophenyl)thiourea (2g)] | 7.28 | 11.1 |
| COc1ccccc1NC(=S)NC(=O)c1cc2ccccc2oc1=O [1-(2-Oxo-2H-chromene-3-carbonyl)-3-(2-methoxyphenyl)thiourea (2b)] | 13.3 | 0.06 |
| O=C(NC(=S)Nc1ccccc1[N+](=O)[O-])c1cc2ccccc2oc1=O [1-(2-Oxo-2H-chromene-3-carbonyl)-3-(2-nitrophenyl)thiourea (2j)] | 0.23 | 26.1 |
| O=C(NC(=S)Nc1ccc(F)c(Cl)c1)c1cc2ccccc2oc1=O [1-(2-Oxo-2H-chromene-3-carbonyl)-3-(3-chloro-4-fluorophenyl)thiourea (2f)] | 0.75 | 0.84 |
| O=C(NC(=S)Nc1cccc(Cl)c1)c1cc2ccccc2oc1=O [1-(2-Oxo-2H-chromene-3-carbonyl)-3-(3-chlorophenyl)thiourea (2e)] | 0.04 | 1.25 |
| O=C(NC(=S)Nc1cccc(F)c1)c1cc2ccccc2oc1=O [1-(2-Oxo-2H-chromene-3-carbonyl)-3-(3-fluorophenyl)thiourea (2c)] | 17.2 | 16.2 |
| COc1cccc(NC(=S)NC(=O)c2cc3ccccc3oc2=O)c1 [1-(2-Oxo-2H-chromene-3-carbonyl)-3-(3-methoxyphenyl)thiourea (2k)] | 8.43 | 53.2 |
| Cc1cccc(NC(=S)NC(=O)c2cc3ccccc3oc2=O)c1 [1-(2-Oxo-2H-chromene-3-carbonyl)-3-(3-methylphenyl)thiourea (2a)] | 0.86 | 2.15 |
| O=C(NC(=S)Nc1ccc(Cl)cc1)c1cc2ccccc2oc1=O [1-(2-Oxo-2H-chromene-3-carbonyl)-3-(4-chlorophenyl)thiourea (2i)] | 5.1 | 42.2 |
| O=C(NC(=S)NC1CCCCC1)c1cc2ccccc2oc1=O [1-(2-Oxo-2H-chromene-3-carbonyl)-3-(cyclohexyl)thiourea (2l)] | 6.97 | 12.2 |
